The values below come from patent publication US5707817A, “Carbohydrate-based vaccine and diagnostic reagent for trichinosis” (Colorado State University Research Foundation, priority 1995, dated 1998).

Where two headings read alike, the source gives them in different places.

Test [1] deals with binding of Tsp 130 antibody to T. spiralis TSL-1 antigens and E11.5 lysate.
The subject of test [2] is binding of Tsp 130 antibody to TSL-1 antigen. The test is described as follows: Competition ELISA: disaccharide inhibition of Tsp 130 antibody binding to TSL-1 antigen (Example 5). Further details: species or system T. spiralis. Conditions: for inhibition of binding of Tsp 130 antibody to TSL-1 antigen: about 500 μg/ml; for relative affinity of Tsp 130 binding: in words, Example 5. The protocol: (§1) Monoclonal antibody Tsp 130 was prepared as described in Denkers et al. (J. Immunol. 144:3152-3159, 1990). TSL-1 antigens were prepared from muscle stage larvae by affinity purification using a Tsp 130 antibody preparation and methods as described in Denkers et al., J. Immunol., ibid., and Denkers et al., Mol. Biochem. Parasitol., ibid.
(§2) Wells in an ELISA plate were coated with TSL-1 antigens as follows. A 96-well Immunlon II ELISA plate, available from Dynatech Laboratories, Chantilly, Va., was coated with about 100 μl/well of a solution containing about 15 ng of TSL-1 antigens per 100 μl carbonate buffer at pH 9.6, overnight, at about 4° C. Following the overnight incubation, the TSL-1 antigen-containing solution was discarded from the wells of the ELISA plate. No wash was performed. The wells of the ELISA plate were then filled to the top with about 10% dry milk in phosphate buffered saline and allowed to incubate for about 1 hour at room temperature. Following the 1 hour incubation, the milk solution was discarded from the wells. No wash was performed.
(§3) Samples in which Tsp-130 monoclonal antibodies and disaccharides, as listed below, were pre-incubated prior to addition to the treated ELISA plate were prepared as follows. One thousand-fold serial dilutions of the following disaccharides, ranging from about 1×10^-6 fg/ml to about 1 mg/ml, were prepared in water: (a) α-tyvelose(1,3)β-d-N-acetylgalactosamine (also referred to herein as α-tyv-GalNAc); (b) β-tyvelose(1,3)β-d-N-acetylgalactosamine (also referred to herein as β-tyv-GalNAc); and (c) α-glucoseα-D-glucose (also referred to herein as α-glc-glc, or trehalose). The disaccharide-containing serial dilutions were then mixed with an about 1:6,400 dilution of Tsp 130 antibody at an about 1:1 (v:v) ratio. The samples were incubated for overnight at about 4° C.
(§4) About 100 μl of the pre-incubation samples were added in triplicate to wells in the milk-coated ELISA plate. The plate was incubated for about 1 hour at room temperature to allow any unbound Tsp 130 antibody in each sample to bind to TSL-1 antigen coated onto the ELISA plate. The plate was then washed 3 times with water.
(§5) The amount of Tsp 130 antibody that bound to TSL-1 antigen coated onto the ELISA plate was determined using the following method. About 100 μl of an about 1:8,000 dilution of horse radish peroxidase-conjugated goat anti-mouse IgG antibody (available from Kirkegaard & Perry Laboratories, Inc., Gaithersburg, Md.) was added to each well of the ELISA plate. The plate was then incubated for about 45 minutes at room temperature. Following incubation, the plate was washed 5 times with 0.05% Tween 20 in phosphate-buffered saline (PBS). The peroxidase-conjugated antibodies which bound to Tsp 130 antibody in the wells were then detected by (a) adding 100 μl/well of 3,3',5,5'-tetramethylbenzidine mixed 1:1 (v:v) with 0.02% hydrogen peroxide in a citric acid buffer (i.e., TMB Microwell Peroxidase Substrate System available from Kirkegaard & Perry) and (b) incubating the plate for about 5 minutes at room temperature. The color reaction was stopped by adding about 100 μl/well of 1M o-phosphoric acid. The color reaction was quantitated using a Microplate Reader #7520, available from Cambridge Technology, Inc., Watertown, Mass. at a wavelength of 450 nm.
A general note: ELISA stands for enzyme-linked immunosorbent assay.

The test system of test [3] is Tsp 130 binding to the crude T. spiralis muscle stage larval lysate E11.5. The test can be described thus: Competitive inhibition assay: disaccharide inhibition of Tsp 130 binding to crude muscle stage larval lysate E11.5 (Example 7). The following applies: for inhibition of Tsp 130 binding to E11.5 lysate: about 500 μg/ml. How it is done:
as §3, §4, §5
Monoclonal antibody Tsp 130 was prepared as described in Example 5. A crude muscle larval lysate of T. spiralis, referred to herein as E11.5, was prepared according to the method as described in Reason et al., ibid.
An Immunlon II ELISA plate coated with E11.5 lysate was prepared using the method described in Example 5 with the variation that wells in the plate were coated with about 100 μl/well of a solution containing about 250 ng of E11.5 lysate per 100 μl carbonate buffer at pH 9.6. […]

Test [4] has as its system Tsp 130 binding to TSL-1 antigen. The test can be described thus: Competitive inhibition assay: disaccharide inhibition of Tsp 130 binding to TSL-1 antigen (Example 6). Further details: species or system T. spiralis. The protocol:
as §1, §2, §3
About 100 μl of the pre-incubation samples were added in triplicate to wells in the milk-coated ELISA plate. The plate was incubated for about 1 hour at room temperature to allow any unbound Tsp 130 antibody in each sample to bind to TSL-1 antigen coated onto the ELISA plate. […]
The amount of Tsp 130 antibody that bound to TSL-1 antigen coated onto the ELISA plate was determined using the following method. […] The peroxidase-conjugated antibodies which bound to Tsp 130 antibody in the wells were then detected by (a) adding 100 μl/well of 3,3',5,5'-tetramethylbenzidine mixed 1:1 (v:v) with 0.02% hydrogen peroxide in a citric acid buffer (i.e., TMB Microwell Peroxidase Substrate System available from Kirkegaard & Perry) and (b) incubating the plate for about 5 minutes at room temperature. […] The color reaction was quantitated using a Microplate Reader #7520, available from Cambridge Technology, Inc., Watertown, Mass. at a wavelength of 450 nm. […]

In the case of “β-3,6-dideoxy-D-arabinohexose [β-tyvelose]”, the “competitive inhibition of Tsp 130 antibody binding, comparison” value in test [1] (in words, Examples 5 through 7) is “better than α-tyvelose and even better than α-glc-glc”.

On to `CC(=O)N[C@@H]1[C@@H](O[C@@H]2O[C@H](C)[C@@H](O)C[C@@H]2O)[C@@H](O)[C@@H](CO)O[C@H]1O` [β-tyv-GalNAc, β-tyvelose(1,3)β-d-N-acetylgalactosamine], for which the “inhibition of binding of Tsp 130 antibody to TSL-1 antigen” value (“inhibition of binding … to TSL-1 antigen” below) in test [2] is listed as “about 100%”. Also, the “relative affinity of Tsp 130 binding” value is listed as “higher affinity than to α-tyv-GalNAc” in test [2]; “higher affinity than to α-tyv-GalNAc or to α-glc-glc” in test [3] (in words, Example 7); “higher affinity than to α-tyv-GalNAc” in test [4] (in words, Example 6). For the same compound, the “inhibition of Tsp 130 binding to E11.5 lysate” value (“inhibition … to E11.5 lysate” below) in test [3] is “about 97%”. The “inhibition of Tsp 130 binding to TSL-1 antigen” value was “about 92%” in test [4] (about 100 μg/ml) and “about 97%” in test [4] (about 1 mg/ml).

Turning to `CC(=O)N[C@@H]1[C@@H](O[C@H]2O[C@H](C)[C@@H](O)C[C@@H]2O)[C@@H](O)[C@@H](CO)O[C@H]1O` [α-tyv-GalNAc, α-tyvelose(1,3)β-d-N-acetylgalactosamine], in test [2], the “inhibition of binding … to TSL-1 antigen” value is given as “about 50%”. In addition, the “inhibition … to E11.5 lysate” value in test [3] is reported as “about 28%”. Moreover, the “inhibition of Tsp 130 binding to TSL-1 antigen” value in test [4] (about 1 mg/ml) is on record as “about 74%”.

For `C[C@H]1O[C@H](O)[C@@H](O)C[C@@H]1O` [α-tyvelose], the “competitive inhibition of Tsp 130 antibody binding, comparison” value in test [1] is reported as “able to competitively inhibit Tsp 130 antibody binding to TSL-1 antigen but at a higher concentration than β-tyvelose”.

Regarding `OC[C@H]1O[C@H](O[C@H]2O[C@H](CO)[C@@H](O)[C@H](O)[C@H]2O)[C@H](O)[C@@H](O)[C@@H]1O` [α-glc-glc, α-glucoseα-D-glucose, reference compound], in test [2], the “inhibition of binding … to TSL-1 antigen” value was “about 30%” and the “relative affinity of Tsp 130 binding” value was “even weaker”. The “inhibition … to E11.5 lysate” value in test [3] is on record as “about 7%”.
